Results reported in US9751869B2, “LXR modulators” (BRISTOL-MYERS SQUIBB COMPANY, priority 2013, dated 2017).

Target: T1, LXRβ (Homo sapiens, UniProt P55055)
T1 construct: Co-transfection expression plasmids, comprising full-length LXRα (pCMX-h LXRα or LXRβ (pCMX-hLXRβ)); expressed in transfected cells; host or cells: CV-1 African green monkey kidney cells, transient transfection with pCMX-hLXRβ
T1 sequence (P55055 1-460): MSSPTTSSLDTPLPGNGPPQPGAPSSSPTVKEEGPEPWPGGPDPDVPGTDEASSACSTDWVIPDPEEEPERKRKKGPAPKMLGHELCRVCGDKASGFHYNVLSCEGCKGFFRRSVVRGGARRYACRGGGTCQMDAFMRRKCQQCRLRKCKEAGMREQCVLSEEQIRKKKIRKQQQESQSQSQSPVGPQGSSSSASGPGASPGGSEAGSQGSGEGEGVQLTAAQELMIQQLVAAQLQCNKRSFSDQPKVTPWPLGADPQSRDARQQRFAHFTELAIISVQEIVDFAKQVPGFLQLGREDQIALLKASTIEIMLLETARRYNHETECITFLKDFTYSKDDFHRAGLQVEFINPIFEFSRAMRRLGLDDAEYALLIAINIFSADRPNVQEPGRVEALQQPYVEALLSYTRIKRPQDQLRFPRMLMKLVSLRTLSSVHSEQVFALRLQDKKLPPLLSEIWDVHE
T1 sequence (P19793 1-462 partner): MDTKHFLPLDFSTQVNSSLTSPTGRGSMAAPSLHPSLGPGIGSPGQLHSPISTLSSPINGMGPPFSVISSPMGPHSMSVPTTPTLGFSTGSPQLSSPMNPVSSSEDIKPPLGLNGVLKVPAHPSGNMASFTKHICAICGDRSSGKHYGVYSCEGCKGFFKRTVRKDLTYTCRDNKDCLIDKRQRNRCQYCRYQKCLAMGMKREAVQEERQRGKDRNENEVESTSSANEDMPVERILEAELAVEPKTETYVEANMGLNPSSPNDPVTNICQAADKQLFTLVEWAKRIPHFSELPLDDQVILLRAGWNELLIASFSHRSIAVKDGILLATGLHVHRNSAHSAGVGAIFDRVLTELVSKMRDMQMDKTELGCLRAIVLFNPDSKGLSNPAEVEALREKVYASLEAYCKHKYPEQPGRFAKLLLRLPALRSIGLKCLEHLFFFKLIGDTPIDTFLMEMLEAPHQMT
Experiment: LXR/LXRE co-transfection assay (luciferase reporter) in CV-1 cells, LXRβ
Assay type: cell-based
Conditions: for EC50: CV-1 cells transfected with pCMX-hLXRβ and LXREx1-Tk-Luciferase, 20 hours incubation, read-out: LXRbeta agonism EC50; for Emax: CV-1 cells, relative to maximum response of high control N-(3-((4-fluorophenyl)-(naphthalene-2-sulfonyl)amino)propyl)-2,2-dimethylpropionamide, read-out: LXRbeta % EFFICACY
How it was run: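 Luciferase read-out after 20 h compound treatment at 37 °C of CV-1 cells carrying transfected hLXRβ plus one-copy LXRE reporter, endogenous RXR partnering. Sigmoidal fit of 10-point half-log curves (4 wells each) gave EC50; % efficacy versus maximal response of the propionamide reference agonist.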

Structure (SMILES)	EC50 [nM]	Emax [%]
Cc1nc(-c2ccc(OC(F)(F)F)cc2)c(-c2cc(-c3ccc(CO)c(S(C)(=O)=O)c3)ccc2-n2nc(C(F)(F)F)cc2C)o1 [Example 333, (4′-(5-methyl-3-(trifluoromethyl)-1H-pyrazol-1-yl)-3′-(2-methyl-4-(4-(trifluoromethoxy)phenyl)oxazol-5-yl)-3-(methylsulfonyl)biphenyl-4-yl)methanol]	35	69
Cc1nc(-c2ccc(OC(F)(F)F)cc2)c(-c2cc(-c3cc(F)cc(S(C)(=O)=O)c3)ccc2-n2ccc(C(F)(F)F)n2)o1 [Example 334, 5-(3′-fluoro-5′-(methylsulfonyl)-4-(3-(trifluoromethyl)-1H-pyrazol-1-yl)biphenyl-3-yl)-2-methyl-4-(4-(trifluoromethoxy)phenyl)oxazole]	305	80
Cc1nc(-c2ccc(OC(F)(F)F)cc2)c(-c2cc(-c3cc(F)c(CO)c(S(C)(=O)=O)c3)ccc2-n2ccc(C(F)(F)F)n2)o1 [Example 335, (3-fluoro-3′-(2-methyl-4-(4-(trifluoromethoxy)phenyl)oxazol-5-yl)-5-(methylsulfonyl)-4′-(3-(trifluoromethyl)-1H-pyrazol-1-yl)biphenyl-4-yl)methanol]	29	71
Cc1nc(-c2ccc(Cl)cc2)c(-c2cc(-c3cc(F)c(CO)c(S(C)(=O)=O)c3)ccc2-n2ccc(C(F)(F)F)n2)o1 [Example 336, (3′-(4-(4-chlorophenyl)-2-methyloxazol-5-yl)-3-fluoro-5-(methylsulfonyl)-4′-(3-(trifluoromethyl)-1H-pyrazol-1-yl)biphenyl-4-yl)methanol]	33	75
Cc1nc(-c2ccc(Cl)cc2Cl)c(-c2cc(-c3cccc(S(C)(=O)=O)c3)ccc2-n2ccc(C(F)(F)F)n2)o1 [Example 337, 4-(2,4-dichlorophenyl)-2-methyl-5-(3′-(methylsulfonyl)-4-(3-(trifluoromethyl)-1H-pyrazol-1-yl)biphenyl-3-yl)oxazole]	178	77
CS(=O)(=O)c1cccc(-c2ccc(-n3ccc(C(F)(F)F)n3)c(-c3oc(C4CC4)nc3-c3ccc(OC(F)(F)F)cc3)c2)c1 [Example 338, 2-cyclopropyl-5-(3′-(methylsulfonyl)-4-(3-(trifluoromethyl)-1H-pyrazol-1-yl)biphenyl-3-yl)-4-(4-(trifluoromethoxy)phenyl)oxazole]	186	58

Next, values leading:

EC50 [nM]	Emax [%]	Structure (SMILES)
60	64	CS(=O)(=O)c1cc(-c2ccc(-n3ccc(C(F)(F)F)n3)c(-c3oc(C4CC4)nc3-c3ccc(OC(F)(F)F)cc3)c2)cc(F)c1CO [Example 339, (3′-(2-cyclopropyl-4-(4-(trifluoromethoxy)phenyl)oxazol-5-yl)-3-fluoro-5-(methylsulfonyl)-4′-(3-(trifluoromethyl)-1H-pyrazol-1-yl)biphenyl-4-yl)methanol]
279	72	CC(C)c1nc(-c2ccc(OC(F)(F)F)cc2)c(-c2cc(-c3cccc(S(C)(=O)=O)c3)ccc2-n2ccc(C(F)(F)F)n2)o1 [Example 340, 2-isopropyl-5-(3′-(methylsulfonyl)-4-(3-(trifluoromethyl)-1H-pyrazol-1-yl)biphenyl-3-yl)-4-(4-(trifluoromethoxy)phenyl)oxazole]
58	76	CC(C)c1nc(-c2ccc(OC(F)(F)F)cc2)c(-c2cc(-c3cc(F)c(CO)c(S(C)(=O)=O)c3)ccc2-n2ccc(C(F)(F)F)n2)o1 [Example 341, (3-fluoro-3′-(2-isopropyl-4-(4-(trifluoromethoxy)phenyl)oxazol-5-yl)-5-(methylsulfonyl)-4′-(3-(trifluoromethyl)-1H-pyrazol-1-yl)biphenyl-4-yl)methanol]
432	46	Cc1nc(-c2ccc(OC(F)(F)F)cc2)c(-c2cc(-c3cccc(C(C)(C)C#N)c3)ccc2-n2ccc(C(F)(F)F)n2)o1 [Example 342, 2-methyl-2-(3′-(2-methyl-4-(4-(trifluoromethoxy)phenyl)oxazol-5-yl)-4′-(3-(trifluoromethyl)-1H-pyrazol-1-yl)biphenyl-3-yl) propanenitrile]
